Earlier results as cited in patent US7858379B2, “Apparatus and method for determining the concentration of iodine-containing organic compounds in an aqueous solution” (Lynntech, Inc., priority 2007, dated 2010).

Experiments:
[1] = through the process of glomerular filtration

CNC(=O)c1c(I)c(NC(C)=O)c(I)c(C(=O)O)c1I [Iothalamate]
protein binding: do not bind to protein
excretion [1]: totally excreted by the kidney

CC(=O)N(CC(O)CO)c1c(I)c(C(=O)NCC(O)CO)c(I)c(C(=O)NCC(O)CO)c1I (stereo not shown) [Iohexol]
protein binding: do not bind to protein
excretion [1]: totally excreted by the kidney
